Patent US8163793B2, “Proline derivatives” (Hoffman-La Roche Inc., priority 2009, dated 2012)

Tests used:
Cathepsin S = Cathepsin S (UniProt P25774); assay: Cathepsin enzyme inhibition assay (fluorogenic peptide substrate Z-Val-Val-Arg-AMC), Cathepsin S; type: biochemical, human and mouse; conditions: enzyme 1 nM, substrate 20 μM, pH 6.5; read-out: CatS IC50
Summary of the method: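 Compounds were combined with 1 nM human or mouse enzyme, and substrate then started the reaction. The buffer was potassium phosphate (100 mM, pH 6.5) containing EDTA-Na 5 mM, Triton X-100 0.001% and […] 5 mM.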

Cat L = Cat L (UniProt P07711); assay: Cathepsin enzyme inhibition assay (fluorogenic peptide substrate Z-Val-Val-Arg-AMC), Cathepsin L; type: biochemical, human and mouse; conditions: for IC50: enzyme 1 nM, substrate 20 μM, pH 6.5, read-out: CatL IC50
Summary of the method: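 Fluorogenic cleavage of Z-Val-Val-Arg-AMC (20 μM) by 1 nM Cat L was monitored at ex 360/em 465 nm for 20 min, the linear phase. The buffer was 100 mM potassium phosphate pH 6.5 with 5 mM EDTA and DTT. IC50 values were derived by standard methods, in μM.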

Cc1cc(N2C[C@H](S(=O)(=O)CC3CC3)C[C@H]2C(=O)NC2(C#N)CC2)n(CC(F)(F)F)n1 [Example 467, (2S,4R)-4-Cyclopropylmethanesulfonyl-1-[5-methyl-2-(2,2,2-trifluoro-ethyl)-2H-pyrazol-3-yl]-pyrrolidine-2-carboxylic acid (1-cyano-cyclopropyl)-amide]
IC50 (Cathepsin S): 2080 nM | CatL, % @25 uM (Cat L; @25 uM compound): 95% @25 uM

N#CCNC(=O)[C@@H]1C[C@@H](S(=O)(=O)c2ccccc2)CN1C(=O)C1CCCCC1 [Example 53, (2S,4R)-4-Benzenesulfonyl-1-cyclohexanecarbonyl-pyrrolidine-2-carboxylic acid cyanomethyl-amide]
IC50 (Cathepsin S): 5.2 nM | IC50 (Cat L): ≥ 25000 nM

N#CC1(NC(=O)[C@@H]2C[C@@H](S(=O)(=O)c3ccc(-n4ccnc4)cc3Cl)CN2C(=O)C2(c3ccc(Cl)nc3)CC2)CC1 [Example 382, (2S,4R)-4-(2-Chloro-4-imidazol-1-yl-benzenesulfonyl)-1-[1-(6-chloro-pyridin-3-yl)-cyclopropanecarbonyl]-pyrrolidine-2-carboxylic acid (1-cyano-cyclopropyl)-amide]
IC50 (Cathepsin S): 0.04 nM | IC50 (Cat L): 68 nM

CC(C)(C)N1CCN(c2ccc(S(=O)(=O)[C@@H]3C[C@@H](C(=O)NC4(C#N)CC4)N(C(=O)C4(c5ccc(Cl)nc5)CC4)C3)c(Cl)c2)CC1 [Example 371, (2S,4R)-4-[4-(4-tert-Butyl-piperazin-1-yl)-2-chloro-benzenesulfonyl]-1-[1-(6-chloro-pyridin-3-yl)-cyclopropanecarbonyl]-pyrrolidine-2-carboxylic acid (1-cyano-cyclopropyl)-amide; Compound with Formic Acid]
IC50 (Cathepsin S): 0.08 nM | IC50 (Cat L): 26.3 nM

N#CC1(NC(=O)[C@@H]2C[C@@H](S(=O)(=O)c3ccc(OCC(F)(F)F)cc3Cl)CN2C(=O)C(F)(F)c2ccccc2)CC1 [Example 251, (2S,4R)-4-[2-Chloro-4-(2,2,2-trifluoro-ethoxy)-benzenesulfonyl]-1-(2,2-difluoro-2-phenyl-acetyl)-pyrrolidine-2-carboxylic acid (1-cyano-cyclopropyl)-amide]
IC50 (Cathepsin S): 0.29 nM | IC50 (Cat L): 1250 nM

N#CC1(NC(=O)[C@@H]2C[C@@H](S(=O)(=O)c3ccccc3)CN2C(=O)C2CCOCC2)CC1 [Example 74, (2S,4R)-4-Benzenesulfonyl-1-(tetrahydro-pyran-4-carbonyl)-pyrrolidine-2-carboxylic acid (1-cyano-cyclopropyl)-amide]
IC50 (Cathepsin S): 6.6 nM | IC50 (Cat L): ≥ 25000 nM

C[C@H](Oc1ccc(S(=O)(=O)[C@H]2CN[C@H](C(=O)NC3(C#N)CC3)C2)c(Cl)c1)C(F)(F)F [Example 230, (2S,4R)-4-[2-Chloro-4-((S)-2,2,2-trifluoro-1-methyl-ethoxy)-benzenesulfonyl]-pyrrolidine-2-carboxylic acid (1-cyano-cyclopropyl)-amide]
IC50 (Cathepsin S): 15.3 nM | IC50 (Cat L): 14800 nM

CC(C)(C)OC(=O)N1C[C@H](S(=O)(=O)c2ccc(OC3COC3)cc2Cl)C[C@H]1C(=O)NC1(C#N)CC1 [Example 174, (2S,4R)-4-[2-Chloro-4-(oxetan-3-yloxy)-benzenesulfonyl]-2-(1-cyano-cyclopropylcarbamoyl)-pyrrolidine-1-carboxylic acid tert.-butyl ester]
IC50 (Cathepsin S): 3.3 nM | IC50 (Cat L): 41500 nM

CC1(C(=O)N2C[C@H](S(=O)(=O)c3ccc(F)cc3C(F)(F)F)C[C@H]2C(=O)NC2(C#N)CC2)CC1 [Example 344, (2S,4R)-4-(4-Fluoro-2-trifluoromethyl-benzenesulfonyl)-1-(1-methyl-cyclopropanecarbonyl)-pyrrolidine-2-carboxylic acid (1-cyano-cyclopropyl)-amide]
IC50 (Cathepsin S): 0.54 nM | IC50 (Cat L): ≥ 25000 nM

N#CC1(NC(=O)[C@@H]2C[C@@H](S(=O)(=O)c3ccccc3Cl)CN2S(=O)(=O)c2ccc3ccccc3c2)CC1 [Example 313, (2S,4R)-4-(2-Chloro-benzenesulfonyl)-1-(naphthalene-2-sulfonyl)-pyrrolidine-2-carboxylic Acid (1-cyano-cyclopropyl)-amide]
IC50 (Cathepsin S): 0.46 nM | IC50 (Cat L): 1390 nM
